Results published in patent US5120647A, “Phospholipase A2 inhibitor” (Shionogi & Co., Ltd., priority 1989, dated 1992).
Counter-ions that a name gives are not always drawn. Like-named read-outs stand apart in the source and are kept apart here.

Assays:
PLA2 from Rat Platelet = target: T1, PLA2 from Rat Platelet (Rattus norvegicus, UniProt P14423); assay: PLA2 inhibitory activity (release of free fatty acid from [14C]phosphatidylethanolamine); format: biochemical; conditions: for IC50: 37° C., 20 minutes, pH 7.4; for PLA2 inhibitory effect (in words): statement in words
T1 construct: PLA2 released from thrombin-stimulated rat platelets; from tissue; host or cells: thrombin-stimulated rat platelets (released enzyme, purified on MD 7.1 antibody-coupled Sepharose)
T1 sequence (P14423 22-146): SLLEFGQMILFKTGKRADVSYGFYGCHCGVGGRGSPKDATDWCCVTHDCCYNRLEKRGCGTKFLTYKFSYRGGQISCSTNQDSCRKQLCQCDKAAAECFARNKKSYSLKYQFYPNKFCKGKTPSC
Procedure: The amount of Cinatrin (μg/ml) effective for inhibiting 50% of PLA2 activity (IC50) was determined.
PLA2 inhibitory activities of Cinatrin and its derivatives were determined according to the following procedure.
PLA2 released from thrombin-stimulated rat platelets was prepared by immuno-affinity chromatography using antibody MD 7.1-coupled Sepharose (Murakami et. al, J. Biochem 104: 884-888, 1988). The standard assay conditions included, 250 μl of Tris-HCl buffer (100 mM, pH 7.4), CaCl2 (3 mM), 40 μM [^14 C]phosphatidylethanolamine and the enzyme. The reaction was started by the addition of the enzyme solution. Following incubation at 37° C. for 20 minutes, the reaction was terminated by addition of 1.25 ml of Dole's reagent (Dole, V. P. & H, Meinerts, J. Biol. Chem. 235: 2595-2599, 1960). Then released free fatty acid was extracted, and counted in Liquiflour (Du Pont-New England Nuclear) to determine the release of the radioactivity. Inhibition activity is expressed as percent of enzyme control.

Solubility = format: physicochemical
[1] = Table 5, methyl ester, read-out: PLA2 Inhibitory Activity, IC50, methyl ester (converted)
[2] = Table 5, seco acid (Na), read-out: PLA2 Inhibitory Activity, IC50, seco acid (Na) (converted)
[3] = Table 5, lactone, read-out: PLA2 Inhibitory Activity, IC50, lactone (converted)

Structure (SMILES)	IC50 (PLA2 from Rat Platelet; [1]) [µM]	IC50 (PLA2 from Rat Platelet; [3]) [µM]	Solubility in organic solvents (Solubility)	further results
C=CCCCCCCCCC(O)CC(O)(C(=O)O)C(O)(C(=O)O)C(O)C(=O)O (centres unmarked) [Cinatrin A seco acid (Na salt)]	–	–	–	IC50 (PLA2 from Rat Platelet; [2]): 138 µM
CCCCCCCCCCC(O)CC(O)(C(=O)O)C(O)(C(=O)O)C(O)C(=O)O (centres unmarked) [Cinatrin B seco acid (Na salt)]	–	–	–	IC50 (PLA2 from Rat Platelet; [2]): 75.7 µM
CCCCCCCCCCCCC(O)(C(=O)O)C(O)(C(=O)O)C(O)C(=O)O (centres unmarked) [Cinatrin C1 seco acid (Na salt)]	–	–	–	IC50 (PLA2 from Rat Platelet; [2]): 70.1 µM
CCCCCCCCCCCCC1(C(=O)O)OC(=O)C(O)C1(O)C(=O)O (centres unmarked) [Cinatrin C1, 2-dodecyl-3,4-dihydroxy-5-oxo-tetrahydrofuran-2,3-dicarboxylic acid]	–	> 801	soluble	IC50 (PLA2 from Rat Platelet; Table 1, lactone form, read-out: IC50, lactone form (Inhibitory Effect on PLA2 from Rat Platelet)): > 801 µM; Change of PLA2 inhibitory activity on conversion of lactone into ester or seco acid form (in words) (PLA2 from Rat Platelet; ester or seco acid form versus lactone form): becomes more active when it is converted into an ester or seco acid form; PLA2 inhibitory effect (in words) (PLA2 from Rat Platelet): moderately active in its lactone form; Solubility in water (Solubility): slightly soluble
CCCCCCCCCCCC(O)C1C(=O)OC(C(=O)OC)C1(O)C(=O)OC (centres unmarked) [Cinatrin C2 methyl ester]	745	–	–	–
CCCCCCCCCCCC(O)C(C(=O)O)C(O)(C(=O)O)C(O)C(=O)O (centres unmarked) [Cinatrin C2 seco acid (Na salt)]	–	–	–	IC50 (PLA2 from Rat Platelet; [2]): 44.6 µM
CCCCCCCCCCCC(O)C1C(=O)OC(C(=O)O)C1(O)C(=O)O (centres unmarked) [Cinatrin C2, 3-hydroxy-4-(1-hydroxydodecyl)-5-oxo-tetrahydrofuran-2,3-dicarboxylic acid]	–	801	soluble	–
CCCCCCCCCCCCC1(O)C(=O)OC(C(=O)O)C1(O)C(=O)O (centres unmarked) [Cinatrin C3, 4-dodecyl-3,4-dihydroxy-5-oxo-tetrahydrofuran-2,3-dicarboxylic acid]	–	78.8	soluble	PLA2 inhibitory effect (in words) (PLA2 from Rat Platelet): particularly effective

More lines, main results first:

IC50 (PLA2 from Rat Platelet; [1]) [µM]	IC50 (PLA2 from Rat Platelet; [3]) [µM]	Solubility in organic solvents (Solubility)	Structure (SMILES)	further results
216	–	–	C=CCCCCCCCCC1CC2(OC(=O)C(O)C2(O)C(=O)OC)C(=O)O1 (centres unmarked) [Cinatrin A methyl ester]	–
–	316	soluble	C=CCCCCCCCCC1CC2(OC(=O)C(O)C2(O)C(=O)O)C(=O)O1 (centres unmarked) [Cinatrin A, 8-(dec-9-ene-1-yl)-3,4-dihydroxy-2,6-dioxo-1,7-dioxaspiro [5,5]-nonane-4-carboxylic acid]	Solubility in water (Solubility): soluble
215	–	–	CCCCCCCCCCC1CC2(OC(=O)C(O)C2(O)C(=O)OC)C(=O)O1 (centres unmarked) [Cinatrin B methyl ester]	–
–	147	soluble	CCCCCCCCCCC1CC2(OC(=O)C(O)C2(O)C(=O)O)C(=O)O1 (centres unmarked) [Cinatrin B, 8-(decane-1-yl)-3,4-dihydroxy-2,6-dioxo-1,7-dioxaspiro[5,5]-nonane-4-carboxylic acid]	PLA2 inhibitory effect (in words) (PLA2 from Rat Platelet): particularly effective
142	–	–	CCCCCCCCCCCCC1(C(=O)OC)OC(=O)C(O)C1(O)C(=O)OC (centres unmarked) [Cinatrin C1 methyl ester]	–
133	–	–	CCCCCCCCCCCCC1(O)C(=O)OC(C(=O)OC)C1(O)C(=O)OC (centres unmarked) [Cinatrin C3 methyl ester]	–
